Counter-ions that a name gives are not always drawn.
Columns and labels:
[1] = Siderophore:iron binding assay (paper chromatography); conditions: for Fe: Chromatography: 55Fe mobilised by compound on paper chromatogram developed in water, Yes/No
Description: Siderophore:Iron Binding Assay. To test whether candidates bound iron directly, candidates (1 nmole) were mixed with ^55Fe (1 pmole), and then separated bound from free ^55Fe using paper chromatography developed in water.
Paper chromatography: The Fe-Siderophore Binding Assay: The concept underlying the Ngal-siderophore-Fe binding assay is that the urinary molecule provides an iron binding siderophore, and that the Ngal protein provides the carrier which retains the siderophore:Fe on the 10 KDa filter. […] To directly test this idea, we will mix 55Fe with HMDB compounds and then separate bound from free 55Fe by using paper chromatography. […] The assay also provides an independent means to follow the purification of the urinary siderophore. Using this assay, we can measure the specific activity of the fractions to identify the peak activity, as well as to compare the urinary fraction with enterochelin to establish relative units of activity.

NGAL = molecular target: T1, NGAL (Homo sapiens, UniProt P80188); assay: NGAL:siderophore:iron binding assay (retention on 10 kDa filter); conditions: for NGAL-siderophore-Fe binding activity (in words): iron retention by NGAL on filter
T1 construct: made in house; host or cells: E. coli BL-21
T1 sequence (P80188 21-198): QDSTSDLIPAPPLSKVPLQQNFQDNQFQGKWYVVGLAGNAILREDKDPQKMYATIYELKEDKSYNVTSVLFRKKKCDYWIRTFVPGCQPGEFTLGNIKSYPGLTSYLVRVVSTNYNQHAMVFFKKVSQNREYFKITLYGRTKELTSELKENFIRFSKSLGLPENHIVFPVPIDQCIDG
Experimental: NGAL:Siderophore:Iron Binding Assays. […] After 60 minutes, the mixture was washed 3 times (YM-10) or alternatively gel filtered (PD-10, GE Biosciences). Ent loaded NGAL served as a positive control. Ferric citrate (1 mM) or Ent:iron (500 μM) served as competitors of ^55Fe binding.
After 60 minutes at room temperature, the mixture was then washed 3 times on a 10-kDa membrane (Amicon YM-10; Millipore Corp.). Ngal loaded with iron-free enterochelin (rather than apo-Ngal) served as a positive control for iron capture. Ferric citrate (1 mM) or iron-loaded enterochelin (siderophore:Fe, […]) was used as a competitor of 55Fe binding.

[2] = apoNGAL 10 μM, 55Fe, compound 10 μM, pH 7.4, washed on 10 kDa filter

Row | Fe: Chromatography [1] | NGAL: Chelator: Fe % Retention (NGAL; [2]) [%] | NGAL-siderophore-Fe binding activity (in words) (NGAL) | Molecule | iron chelating activity by paper chromatography (in words) [1] | NGAL: Chelator: Fe % Retention (NGAL; pH 7.4) [%]
1 | Yes | 12 |  | NC(Cc1ccc(O)c(O)c1)C(=O)O (racemic) [3,4-Dihydroxy-DL-phenylalanine] | active | 
2 | Yes | 3 |  | Nc1c(O)cccc1C(=O)CC(N)C(=O)O (racemic) [3-Hydroxy-DL-kynurenine] | active | 
3 | No | 5 |  | CC(=O)NC(CC(=O)O)c1ccccc1 (racemic) [N-Acetyl-DL-Â- phenylalanine] |  | 
4 | No | 6 |  | COc1cccc(C(=O)O)c1OC [2,3 Dimethoxybenzoic acid] |  | 
5 | Yes | 35 | active | O=C(O)c1cccc(O)c1O [2,3- Dihydroxybenzoic acid] | active | 
6 | No | 6 |  | O=C(O)c1cccnc1C(=O)O [2,3-Pyridine-dicarboxylic acid] |  | 
7 | No | 6 |  | O=C(O)CNC(=O)c1ccco1 [2-Furoylglycine] |  | 
8 | No | 10 |  | Nc1c(O)cccc1C(=O)O [3- Hydroxyanthranilic acid] |  | 
9 | No | 12 |  | Cc1ncc(CO)c(C(=O)O)c1O [4-Pyridoxic Acid] |  | 
10 | No | 4 |  | N[C@@H](Cc1c[nH]c2ccc(O)cc12)C(=O)O [5-Hydroxytryptophan] |  | 
11 | Yes | 73 | highest activities | Oc1cccc(O)c1O [Benzene 1,2,3 Trial (Pyrogallol)] |  | 
12 | No | 8 |  | O=C(/C=C/c1ccc(O)c(O)c1)OCCc1ccccc1 [Caffeic acid phenethyl ester] |  | 
13 | No | 7 |  | O=C(O)/C=C/c1ccc(O)c(O)c1 [Caffeic acid] |  | 
14 | Yes | 10 |  | N[C@@H](Cc1ccc(O)c(O)c1)C(=O)O [Dihydroxyphenyl alanine (L-DOPA)] | active | 
15 | No | 3 |  | COc1cc(/C=C/C(=O)O)ccc1O [Ferulic acid] |  | 
16 | No | 3 |  | Nc1nc2[nH]cc(CNc3ccc(C(=O)N[C@@H](CCC(=O)O)C(=O)O)cc3)nc-2c(=O)n1 [Folic acid] |  | 
17 | No | 6 |  | O=C(O)c1cc(O)ccc1O [Gentistic Acid] |  | 
18 | No | 4 |  | COc1ccccc1O [Guaiacol] |  | 
19 | No | 7 |  | O=C(O)Cc1cc(O)ccc1O [Homogentisic acid] |  | 
20 | No | 8 |  | N[C@@H](Cc1ccccc1)C(=O)O [L-Phenylalanine] |  | 
21 | No | 3 |  | O=C(O)c1cccnc1 [Nicotinic acid] |  | 
22 | No | 3 |  | NCc1[nH]cc(CCC(=O)O)c1CC(=O)O [Porphobilinogen] |  | 
23 | Yes | 50 | active | O=C(/C=C/c1ccc(O)c(O)c1)O[C@H](Cc1ccc(O)c(O)c1)C(=O)O [Rosmarinic acid] | active | 
24 | No | 15 |  | O=C(O)c1ccccc1O [Salicylic acid] |  | 

More lines, now with the values behind:

Row | Molecule | Fe: Chromatography [1] | NGAL: Chelator: Fe % Retention (NGAL; [2]) [%] | NGAL-siderophore-Fe binding activity (in words) (NGAL) | iron chelating activity by paper chromatography (in words) [1] | NGAL: Chelator: Fe % Retention (NGAL; pH 7.4) [%]
25 | O=C1CC(C(=O)O)NC(=O)N1 (racemic) [DL- Dihdroorotic acid] | No | 7 |  |  | 
26 | NCC(=O)c1ccc(O)c(O)c1 (racemic) [DL- Norepinephrine•HCl] | No | 5 |  |  | 
27 | O=C(O)CC(C(=O)O)C(O)C(=O)O (racemic) [Isocitric acid] | Yes |  |  |  | 
28 | COc1ccccc1OC [1,2-Dimethoxybenzene] | No | 3 |  |  | 
29 | O=C(O)c1ccc(O)c(O)c1 [3,4- Dihydroxybenzoic Acid] | Yes | 5 |  | active | 
30 | NCC(=O)CCC(=O)O [5-Aminolevulinic acid] | No | 3 |  |  | 
31 | O=C(O)Cc1c[nH]c2ccc(O)cc12 [5-Hydroxy-indoleacetic acid] |  | 7 |  |  | 
32 | NCCc1cc(O)c(O)c(O)c1 [5-Hydroxydopamine] | No | 10 |  |  | 
33 | NCCc1cc(O)c(O)cc1O [6-Hydroxydopamine] | No | 4 |  |  | 
34 | O=C(O[C@@H]1Cc2c(O)cc(O)cc2O[C@@H]1c1cc(O)c(O)c(O)c1)c1cc(O)c(O)c(O)c1 [(−) Epigallocatechin gallate] | Yes | 45 | active | active | 
35 | NC(=O)NC1NC(=O)NC1=O (centres unmarked) [Allantoin] | No | 7 |  |  | 
36 | C=CC1=C(C)/C(=C/c2[nH]c(Cc3[nH]c(/C=C4\NC(=O)C(C)=C4C=C)c(C)c3CCC(=O)O)c(CCC(=O)O)c2C)NC1=O [Bilirubin] | No | 3 |  |  | 
37 | C=CC1=C(C)C(/C=c2/[nH]/c(=C\c3[nH]c(/C=C4\NC(=O)C(C)=C4C=C)c(C)c3CCC(=O)O)c(CCC(=O)O)c2C)NC1=O (centres unmarked) [Biliverdin HCl] | No | 9 |  |  | 
38 | O=S1(=O)Oc2ccccc2O1 [Catechol cyclic sulfonate] | No | 6 |  |  | 
39 | O=C(/C=C/c1ccc(O)c(O)c1)O[C@@H]1C[C@](O)(C(=O)O)C[C@@H](O)[C@H]1O [Chlorogenic acid] |  | 6 |  |  | 
40 | O=C(O)/C=C(/CC(=O)O)C(=O)O [Cis-Aconitic acid] | No | 11 |  |  | 
41 | O=C([O-])CC(O)(CC(=O)[O-])C(=O)[O-].[Na+].[Na+].[Na+] [Citric acid sodium] | Yes | 6 |  | active | 
42 | O=c1oc2c(O)c(O)cc3c(=O)oc4c(O)c(O)cc1c4c23 [Ellagic acid] | Yes | 24 | active | active | 
43 | Cc1cc2nc3c(=O)[nH]c(=O)nc-3n(C[C@H](O)[C@H](O)[C@H](O)COP(=O)(O)OP(=O)(O)OC[C@H]3O[C@@H](n4cnc5c(N)ncnc54)[C@H](O)[C@@H]3O)c2cc1C [FAD] |  | 6 |  |  | 
44 | N[C@@H](Cc1c[nH]c2ccccc12)C(=O)O [L-Tryptophan] | No | 5 |  |  | 
45 | O=c1c(O)c(-c2cc(O)c(O)c(O)c2)oc2cc(O)cc(O)c12 [Myricetin] | No | 28 | active |  | 
46 | NC(=O)C1=CN([C@@H]2O[C@H](COP(=O)(O)OP(=O)(O)OC[C@H]3O[C@@H](n4cnc5c(N)ncnc54)[C@H](OP(=O)(O)O)[C@@H]3O)[C@@H](O)[C@H]2O)C=CC1 [NADPH] | Yes | 3 |  |  | 
47 | NC(=O)c1ccc[n+]([C@@H]2O[C@H](COP(=O)(O)OP(=O)(O)OC[C@H]3O[C@@H](n4cnc5c(N)ncnc54)[C@H](OP(=O)(O)O)[C@@H]3O)[C@@H](O)[C@H]2O)c1 [NADP] | Yes | 7 |  | active | 
48 | NC(=O)c1ccc[n+]([C@@H]2O[C@H](COP(=O)(O)OP(=O)(O)OC[C@H]3O[C@@H](n4cnc5c(N)ncnc54)[C@H](O)[C@@H]3O)[C@@H](O)[C@H]2O)c1 [NAD] | No | 12 |  |  | 
49 | O=C(O)c1cc(=O)[nH]c(=O)[nH]1 [Orotic acid] | No | 13 |  |  | 
50 | C=CC1=C(C)c2cc3[nH]c(cc4nc(cc5[nH]c(cc1n2)c(C)c5CCC(=O)O)C(CCC(=O)O)=C4C)c(C)c3C=C [Protoporphyrin IX] |  | 3 |  |  | 
51 | Cc1ncc(CO)c(C=O)c1O [Pyridoxal] | No | 1 |  |  | 
52 | O=C(O)CCC(=O)O [Succinic acid] |  |  |  |  | 11
53 | O=c1cc[nH]c(=O)[nH]1 [Uracil] |  | 7 |  |  | 
54 | β-Nicotinamide adenine |  |  |  | active | 

Reference: patent US20110268818A1, “NGAL-BINDING SIDEROPHORES AND USE THEREOF TO TREAT IRON DEFICIENCY AND IRON OVERLOAD” (priority 2008, published 2011)
